{"source": "patent US10639287B2", "about": "“Compounds for the treatment of mitochondrial diseases” (UNIVERSITE PARIS-SUD, priority 2014, dated 2020)", "key": {"[1]": {"test_system": "mip1^G651S and mip1^A692T yeast mutants, Δsml1", "experiment": "Small colony frequency in mip1 strains with or without SML1 deletion (mtDNA stability)", "type": "cell-based, Saccharomyces cerevisiae", "details": "32 μM", "method": "Deletion of the SML1 gene encoding the inhibitor of RNRI (ribonucleotide diphosphate reductase, enzyme limiting the synthesis pathway of dNTPs) is known to be a genetic suppressor of the instability of the mtDNA caused by mutations in the MIP1 gene (Wang P J, Chabes A, Casagrande R, Tian X C, Thelander L and Huffaker T C. (1997) Rnr4p a novel ribonucleotide reductase small-subunit protein. Mol Cell Biol, 17, 6114-6121).\nThe frequency of the small colonies was determined for the mip1^G651S and mip1^A692T strains, whether deleted or not from the SML1 gene and in the presence of 32 μM clofilium tosylate or DMSO.\nFrom pre-cultures in selective medium (SC-TRP, 2% ethanol (v/v)) of mutated mip1 strains, 2.10^5 cells/mL were seeded in 2 mL of rich YPD medium in the presence of 32 μM clofilium tosylate or DMSO, then incubated at 28° C. for 24 hours. The cells were then diluted to have about 200 to 250 cells per dish and were spread on differential synthetic medium (SC-TRP, 0.3% glucose, 2% ethanol). The number of small colonies was calculated after 5 days of incubation at 28° C."}, "polg-1(ok1458Δ/+) strain": {"test_system": "polg-1(ok1458Δ/+) strain", "experiment": "Non-toxic concentration (MIC) in nematode, larval development over 4 days, polg-1 mutated line", "type": "in vivo, Caenorhabditis elegans", "details": "1 μM to 50 μM", "method": "A series of NGM dishes containing clofilium tosylate at concentrations of 1 μM, 5 μM, 10 μM, 50 μM, 100 μM or 200 μM were prepared (three dishes for each concentration). Between 30 and 40 synchronised L1 larvae of the wild-type N2 BRISTOL line or mutated VC1224 line (polg-1(ok1458Δ/+)/mT1 II; +/mT1 [dpy-10(el28)] II), these being nematodes carrying a heterozygous deletion of 2149 bp in the sequence encoding the polg-1 gene, were deposited on each of these dishes."}, "[2]": {"test_system": "control fibroblasts and fibroblasts from a patient with a mutation on each allele of the POLG gene", "experiment": "Maximum non-toxic concentration on fibroblast cultures (xCELLigence cell index)", "type": "cell-based, human", "details": "140 h, 2.5-10 μM tested", "method": "Skin fibroblasts from the control and from the patient were cultured in DMEM Galactose (DMEM free of glucose (Life Technologies) supplemented with 10 mM galactose, 10% foetal bovine serum, 200 U/mL penicillin, 200 U/mL streptomycin). Uridine (50 μg/mL) and sodium pyruvate (2.5 mM) were added to the culture medium to maintain the cells expressing a deficiency of the respiratory chain. The cells were incubated in a controlled atmosphere at 37° C. and 5% CO2.\nCell growth of patient and control fibroblasts was measured continuously for 140 h by use of an xCELLigence apparatus (ACEA Biosciences) in 96-well plates. The background noise of the signal was measured with 50 μL of culture medium per well. 50 μL of medium containing 1350 fibroblasts were then added to each well. The impedance measurement was taken every minute for 9 h and then every 15 minutes until the end of analysis.\nClofilium tosylate was diluted in 0.1% DMSO and used at different concentrations (2.5 μM, 5 μM, 10 μM) in a total volume of 50 μL. Toxic concentrations of clofilium tosylate were determined by adding the drug from the point of cell seeding. For each drug concentration and each control, the analysis was carried out in triplicate on 96-well plates. A mathematical algorithm was used to convert the impedance signal into cell index (CI). […]"}, "[3]": {"test_system": "fibroblasts from a patient with a mutation on each allele of the POLG gene", "experiment": "Amount of mtDNA (qPCR) in patient fibroblasts, cell growth conditions", "type": "cell-based, human", "details": "2.5 μM, DMEM high glucose, harvested at 100% confluence", "method": "Skin fibroblasts from the control and from the patient were cultured to 100% confluence in a complete Dulbecco's Modified Eagle Medium (DMEM) high glucose medium (4.5 g/L of D-glucose, 110 mg/L sodium pyruvate, 10% foetal bovine serum, 1% penicillin/streptomycin from the stock solution containing 10,000 I.U. penicillin and 10,000 μg/mL streptomycin) at 37° C. under 5% CO2. At confluence, the cultures were trypsinised and placed back in culture at 30% confluence in a complete DMEM high glucose medium supplemented with either 0.1% DMSO or with 2.5 μM clofilium tosylate. They were incubated at 37° C. under 5% CO2 and harvested at 100% confluence. The total fibroblast DNAs were extracted by the phenol-chloroform method, and the mtDNA and nuclear DNA were quantified by qPCR as described in Sarzi et al., 2007 (Sarzi, E., Bourdon, A., Chrétien, D., Zarhrate, M., Corcos, J., Slama, A., Cormier-Daire, V., De Lonlay, P., Munnich, A. and Rötig, A. (2007) Mitochondrial DNA Depletion is a Prevalent Cause of Multiple Respiratory Chain Deficiency in Childhood. J Pediatr, 105, 531-534)."}}, "data": [{"smiles": "CCCCCCC[N+](CC)(CC)CCCCc1ccc(Cl)cc1.Cc1ccc(S(=O)(=O)[O-])cc1", "note": "[clofilium tosylate]", "values": [{"measurement": "stability of the mtDNA, clofilium tosylate together with availability of dNTPs (SML1 deletion)", "setting": "[1]", "value": "additive effect"}, {"measurement": "larval development", "setting": "polg-1(ok1458Δ/+) strain", "value": "developed similarly"}, {"measurement": "maximum approved (non-toxic) concentration", "setting": "[2]", "value": 2.5, "unit": "µM"}, {"measurement": "amount of mtDNA, cell growth conditions", "setting": "[3]", "value": "slightly increased"}]}]}
